Measured values from ChEMBL document CHEMBL4699469, “Recent Developments in the Biology and Medicinal Chemistry of CDK9 Inhibitors: An Update” (J Med Chem, 2020).
In brackets after ≈: the same amount, converted by molar mass.

Experiments:
A2780 = test: Antiproliferative activity against human A2780 cells incubated for […] by crystal violet staining based assay; type: functional, cell-based
MOLM-13 [1] = test: Antiproliferative activity against human MOLM-13 cells incubated for 72 hrs by Cell Titre-Glo luminescent assay; type: functional, cell-based; settings: MOLM-13, 72 h
[2] = target: Cyclin-dependent kinase 8 (Homo sapiens, UniProt P49336); test: Inhibition of CDK8 (unknown origin) by TR-FRET assay
[3] = target: T1, Cyclin-dependent kinase 2 (Homo sapiens, UniProt P24941); test: Inhibition of CDK2 (unknown origin) using Ulight-labeled substrate by TR-FRET LANCE method
NCI-H929 = test: cells; settings: Homo sapiens, NCI-H929, 24 h
[4] = target: Cyclin-dependent kinase 6 (Homo sapiens, UniProt Q00534); test: Inhibition of CDK6 (unknown origin) using Ulight-labeled substrate by TR-FRET LANCE method
[5] = target: Cyclin-dependent kinase 4 (Homo sapiens, UniProt P11802); test: Inhibition of CDK4 (unknown origin) using Ulight-labeled substrate by TR-FRET LANCE method
[6] = target: T2, Cyclin-dependent kinase 7 (Homo sapiens, UniProt P50613); test: Inhibition of CDK7 (unknown origin) using Ulight-labeled substrate by TR-FRET LANCE method
[7] = Plasma clearance in Sprague-Dawley rat at 1 mg/kg, iv measured after 24 hrs by reverse phase HPLC analysis; type: ADME, organism-based
MV4-11 [8] = test: cells; settings: Homo sapiens, MV4-11, 24 h
[9] = target: T3, Cyclin-dependent kinase 1 (Homo sapiens, UniProt P06493); test: Inhibition of CDK1 (unknown origin) using Ulight-labeled substrate by TR-FRET LANCE method
CDK9/cyclin T1 [10] = target: T4, CDK9/cyclin T1 (Homo sapiens, UniProt P50750); test: Inhibition of His-tagged human CDK9/cyclin T1 expressed in insect cells using biotinylated-cdk7tide peptide incubated for 5 hrs by Alpha Screen assay
CDK9/cyclin T1 [11] = target: T4, CDK9/cyclin T1; test: Displacement of Alexa Fluor 647 ADP Tracer from His-tagged human CDK9/Cyclin T1 expressed in baculovirus expression system incubated for 1 hr by adapta assay
MOLT-4 = test: Antiproliferative activity against human MOLT4 cells incubated for 72 hrs by cell titer glo assay; type: functional, cell-based; settings: MOLT-4, 72 h
CDK7/Cyclin H/MNAT1 = CDK7/Cyclin H/MNAT1 (Homo sapiens, UniProt P50613); test: Displacement of Alexa Fluor 647 ADP Tracer from human CDK7/CyclinH/MAT1 expressed in baculovirus expression system incubated for 1 hr by adapta assay
CDK9/cyclin T1 [12] = target: T4, CDK9/cyclin T1; test: Inhibition of human CDK9 (1 to 372 residues)/N-terminal GST-fused His-tagged CyclinT1 (1 to 726 residues) expressed in baculovirus expression system incubated for 0.5 to 1 hr by TR-FRET assay
[13] = target: Cyclin-dependent kinase 2/cyclin E1 (Homo sapiens, UniProt P24941); test: Inhibition of His-tagged human CDK2/cyclin E1 expressed in insect cells using biotin Ttds-YISPLKSPYKISEG as substrate preincubated for 15 mins followed by ATP and substrate addition and measured after 25 mins by TR-FRET assay
CDK3/Cyclin E = CDK3/Cyclin E (Homo sapiens, UniProt Q00526); test: Inhibition of C-terminal His6-tagged human CDK3/N-terminal GST-tagged human cyclin E expressed in baculovirus infected Sf21 insect cells
[14] = Thermodynamic solubility of the compound at pH 6.5 incubated for 24 hrs by equilibrium shake flask; type: physicochemical; settings: buffer, read-out: Therm_solubility
[15] = target: Glycogen synthase kinase-3 alpha (Homo sapiens, UniProt P49840); test: Inhibition of human GSK3alpha
[16] = Oral bioavailability in Wistar rats at 0.6 to 1 mg/kg measured up to 24 hrs by LC-MS/MS analysis; type: ADME, organism-based; settings: rat, in vivo, dose 0.6-1 mg/kg
[17] = target: Glycogen synthase kinase-3 beta (Homo sapiens, UniProt P49841); test: Inhibition of human GSK3beta
[18] = target: T5, Cyclin-dependent kinase 9 (Homo sapiens, UniProt P50750); test: Binding affinity to wild-type human full length CDK9 (M1 to F372 residues) expressed in bacterial expression system by Kinomescan method
[19] = target: T2, Cyclin-dependent kinase 7; test: Binding affinity to wild-type human full length CDK7 (M1 to L344 residues) expressed in mammalian expression system by Kinomescan method
MOLM-13 [20] = test: Antiproliferative activity against human MOLM-13 cells; type: functional, cell-based
MV4-11 [21] = test: Antitumor activity against human MV4-11 cells xenografted in mouse assessed as tumor growth inhibition at 7.5 mg/kg relative to control; type: functional; settings: read-out: TGI
[22] = Solubility of the compound at pH 8.7; type: physicochemical; settings: buffer
[23] = Solubility of the compound at pH 6.8; type: physicochemical; settings: buffer
[24] = Oral bioavailability in mouse; type: ADME, organism-based; settings: in vivo
[25] = target: T5, Cyclin-dependent kinase 9
[26] = target: T1, Cyclin-dependent kinase 2; test: Inhibition of CDK2 in human MCF7 cells assessed as reduction in Rb phosphorylation at T821 residue incubated for 6 hrs by immunoblot analysis; type: cell-based
[27] = target: T2, Cyclin-dependent kinase 7; test: Inhibition of CDK7 in human MCF7 cells assessed as RNA polymerase2 phosphorylation at serine 5 residue residue incubated for 6 hrs by immunoblot analysis; type: cell-based
[28] = Half life in dog; type: ADME, Canis lupus familiaris; settings: in vivo
[29] = Half life in rat; type: ADME; settings: in vivo
[30] = target: T3, Cyclin-dependent kinase 1; test: Inhibition of CDK1 in human MCF7 cells assessed as reduction in PP1alpha phosphorylation at T320 residue incubated for 6 hrs by immunoblot analysis; type: cell-based
OPM-2 = test: Growth inhibition of human OPM-2 cells incubated for 24 hrs; type: functional
[31] = target: Cyclin-dependent kinase 4/6 (Homo sapiens, UniProt P11802+Q00534); test: Inhibition of CDK4/6 in human MCF7 cells assessed as reduction in Rb phosphorylation at S807/811 residue incubated for 6 hrs by immunoblot analysis; type: cell-based
[32] = Half life in monkey; type: ADME, Macaca mulatta; settings: rhesus monkey, in vivo

Cc1cc(CS(C)(=O)=O)cc(Nc2ncc(F)c(-c3ccc(F)c4ccoc34)n2)c1
IC50 (A2780): 0.038 µM
IC50 (MOLM-13 [1]): 0.046 µM

COc1ccc(F)cc1-c1c(F)cnc2[nH]c(C3=CCN([C@H]4CC[C@H](C(=O)O)CC4)CC3)cc12
IC50 [2]: > 0.32 µM
IC50 [3]: > 0.32 µM
IC50 (NCI-H929): 0.04 µM
IC50 [4]: 0.101 µM
IC50 [5]: 0.162 µM
IC50 [6]: > 0.32 µM
clearance [7]: 10.5 mL/min/kg
IC50 (MV4-11 [8]): 0.138 µM
IC50 [9]: > 0.32 µM

O=C(Nc1cc(-c2cccc(NCc3cccc(F)c3)n2)c(Cl)cn1)[C@H]1CNCCO1
IC50 (CDK9/cyclin T1 [10]): < 0.008 µM

COC[C@H](C)N[C@H]1CC[C@H](Nc2cc(-c3cccc(NCC4(C#N)CCOCC4)n3)c(Cl)cn2)CC1
IC50 (CDK9/cyclin T1 [11]): < 0.0005 µM
IC50 (MOLT-4): 0.009 µM
IC50 (CDK7/Cyclin H/MNAT1): > 10 µM

COc1ccc(F)cc1-c1ncnc2[nH]c(C3CCNCC3)cc12
IC50 (CDK9/cyclin T1 [12]): 0.013 µM

COc1cc(F)ccc1-c1ncnc(Nc2cccc(CCS(C)(=O)=O)c2)n1
IC50 [13]: 0.558 µM

COc1cc(F)ccc1-c1ncnc(Nc2cccc(C[S@](C)(=N)=O)c2)n1 [ATUVECICLIB]
IC50 (CDK3/Cyclin E): > 0.89 µM
solubility thermodynamic at 24 h [14]: 479 µg/mL (≈ 1.24 mM)
IC50 [15]: 0.045 µM
bioavailability [16]: 54%
IC50 [17]: 0.087 µM

CC(C)(C)c1cnc(CSc2cnc(NC(=O)C3CCNCC3)s2)o1 [BMS-387032]
IC50 (MOLT-4): 0.173 µM

Cn1ncc(-c2nc(N[C@H]3CC[C@H](N)CC3)ncc2Cl)c1CC1CC1 [BTX-A51]
Kd [18]: 0.004 µM
Kd [19]: 0.0013 µM

COc1cc(F)ccc1-c1cc(Nc2cc(CS(C)(=N)=O)ccn2)ncc1F (centres undefined) [ENITOCICLIB]
IC50 (MOLM-13 [20]): 0.029 µM

CN1CC[C@H](c2c(OP(=O)(O)O)cc(O)c3c(=O)cc(-c4ccccc4Cl)oc23)[C@H](O)C1 [TP-1287]
inhibition in vivo at 7.5 mg/kg (MV4-11 [21]): 109%
solubility [22]: 9300 µg/mL (≈ 19.3 mM)
solubility [23]: 9500 µg/mL (≈ 19.7 mM)
F [24]: 182.3%
IC50 [25]: 0.084 µM

CC(=O)N[C@@H]1CCC[C@H](C(=O)Nc2cc(-c3cnn4c3CC(C)(C)C4)c(Cl)cn2)C1 [ZEMIRCICLIB]
IC50 [26]: > 10 µM
IC50 [27]: 1.1 µM
half-life [28]: < 1 h
half-life [29]: < 1 h
IC50 [30]: 0.37 µM
GI50 (OPM-2): 0.023 µM
IC50 [31]: > 10 µM
half-life [32]: < 1 h
